Data: the supplement of paper PMC10627819

Legend:
B. subtilis 168 [1] = assay: fitness (endpoint OD595 vs no drug) (fraction); higher = more growth
Outline: (§1)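 Bacterial fitness was scored as optical density at the stationary-phase transition relative to the robust mean of no-drug control wells. Scores are capped at 1. The growth data were OD595 readings every 30 min for 14 h at 37 °C, background-subtracted against the first reading, from 384-well plates inoculated at OD595 0.01 in TSB, LB Lennox or CY.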

S. aureus Newman [2] = assay: as above
Outline: as §1

S. aureus DSM 20231 = assay: Bliss interaction score (quartile over a dose matrix) (fitness difference); higher = more antagonism (negative = synergy)
Outline: (§2)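 The Bliss score was calculated by subtracting the expected fitness, the product of single-drug values, from the observed fitness. OD595 at entry into stationary phase, over the plate's robust no-drug mean and capped at 1, served as the fitness readout. Single-drug values were inferred from combination data, and scores are summarised by quartiles across technical, biological and donor/recipient replicates.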

S. pneumoniae D39V [3] = assay: as above
Outline: as §2

B. subtilis 168 [4] = assay: as above
Outline: as §2

S. aureus Newman [5] = assay: as above
Outline: as §2

S. pneumoniae D39V [6] = assay: fitness (endpoint OD595 vs no drug) (fraction); higher = more growth
Outline: as §1

[7] = first compound 0.5 µg/mL, partner 0.5 µg/mL, one replicate
[8] = first compound 0.5 µg/mL, partner 1 µg/mL, one replicate
[9] = first compound 0.5 µg/mL, partner 2 µg/mL, one replicate
[10] = first compound 1 µg/mL, partner 0.5 µg/mL, one replicate
[11] = first compound 1 µg/mL, partner 1 µg/mL, one replicate
[12] = first compound 2 µg/mL, partner 0.5 µg/mL, one replicate
[13] = first compound 2 µg/mL, partner 1 µg/mL, one replicate
[14] = first compound 0.25 µg/mL, partner 0.0625 µg/mL
[15] = first compound 0.25 µg/mL, partner 0.125 µg/mL
[16] = first compound 0.25 µg/mL, partner 0.25 µg/mL
[17] = first compound 0.5 µg/mL, partner 0.0625 µg/mL
[18] = first compound 0.5 µg/mL, partner 0.125 µg/mL
[19] = first compound 0.5 µg/mL, partner 0.25 µg/mL
[20] = first compound 0.25 µg/mL, partner 85.5 µg/mL
[21] = first compound 0.25 µg/mL, partner 342 µg/mL
[22] = first compound 0.5 µg/mL, partner 342 µg/mL
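For Bliss interaction score (quartile over a dose matrix) in this document: first quartile when negative (synergy) and third quartile when positive (antagonism).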

In the case of `CC[C@H]1OC(=O)[C@H](C)[C@@H](O[C@H]2C[C@@](C)(OC)[C@@H](O)[C@H](C)O2)[C@H](C)[C@@H](O[C@@H]2O[C@H](C)C[C@H](N(C)C)[C@H]2O)[C@](C)(O)C[C@@H](C)CN(C)[C@H](C)[C@@H](O)[C@]1(C)O` [Azithromycin] + O=C(O)c1cn(C2CC2)c2cc(N3CCNCC3)c(F)cc2c1=O [Ciprofloxacin], the fitness (B. subtilis 168 [1]; first compound 0.25 µg/mL, partner 0.0098 µg/mL) is reported as 0.886, the fitness (B. subtilis 168 [1]; first compound 0.25 µg/mL, partner 0.0195 µg/mL) is reported as 0.781 and the fitness (B. subtilis 168 [1]; first compound 0.5 µg/mL, partner 0.0195 µg/mL) is reported as 0.702. For the same compound, the fitness (B. subtilis 168 [1]; first compound 2 µg/mL, partner 0.0098 µg/mL, one replicate) was 0.428, the fitness (B. subtilis 168 [1]; first compound 2 µg/mL, partner 0.0195 µg/mL, one replicate) was 0.279 and the fitness (B. subtilis 168 [1]; first compound 2 µg/mL, partner 0.039 µg/mL, one replicate) was 0.258. For the same compound, the fitness (S. aureus Newman [2]; first compound 0.125 µg/mL, partner 0.0375 µg/mL) was 0.684, the fitness (S. aureus Newman [2]; first compound 0.125 µg/mL, partner 0.075 µg/mL) was 0.631 and the fitness (S. aureus Newman [2]; first compound 0.25 µg/mL, partner 0.0375 µg/mL) was 0.697. It also gave a fitness (S. aureus Newman [2]; first compound 0.25 µg/mL, partner 0.075 µg/mL) of 0.697, a fitness (S. aureus Newman [2]; first compound 0.5 µg/mL, partner 0.0375 µg/mL) of 0.547 and a fitness (S. aureus Newman [2]; first compound 0.5 µg/mL, partner 0.075 µg/mL) of 0.581. The Bliss interaction score (S. aureus DSM 20231) was 0.105, the Bliss interaction score (S. pneumoniae D39V [3]) was -0.0524 and the Bliss interaction score (B. subtilis 168 [4]) was 0.228. For the same compound, the Bliss interaction score (S. aureus Newman [5]) was 0.102.
`CC1=C(C(=O)O)N2C(=O)[C@@H](NC(=O)[C@H](N)c3ccccc3)[C@H]2SC1` [Cephalexin] + CC1=C\[C@@H](O)CC(=O)Cc2nc(co2)C(=O)N2CCC=C2C(=O)O[C@H](C(C)C)[C@H](C)/C=C/C(=O)NC\C=C\1 [Virginiamycin M1] gave a fitness (S. pneumoniae D39V [6]; first compound 0.125 µg/mL, partner 0.5 µg/mL, one replicate) of 0.967, a fitness (S. pneumoniae D39V [6]; first compound 0.125 µg/mL, partner 1 µg/mL, one replicate) of 0.966 and a fitness (S. pneumoniae D39V [6]; first compound 0.125 µg/mL, partner 2 µg/mL, one replicate) of 0.954. The fitness (S. pneumoniae D39V [6]; first compound 0.25 µg/mL, partner 0.5 µg/mL, one replicate) was 0.964, the fitness (S. pneumoniae D39V [6]; first compound 0.25 µg/mL, partner 1 µg/mL, one replicate) was 0.991 and the fitness (S. pneumoniae D39V [6]; first compound 0.25 µg/mL, partner 2 µg/mL, one replicate) was ≥ 1. For the same compound, the fitness (S. pneumoniae D39V [6]; [7]) was ≥ 1, the fitness (S. pneumoniae D39V [6]; [8]) was ≥ 1 and the fitness (S. pneumoniae D39V [6]; [9]) was ≥ 1. For the same compound, the fitness (S. pneumoniae D39V [6]; first compound 1 µg/mL, partner 0.15 µg/mL, one replicate) was 0.934, the fitness (S. pneumoniae D39V [6]; first compound 1 µg/mL, partner 0.3 µg/mL, one replicate) was 0.885 and the fitness (S. pneumoniae D39V [6]; [10]) was 0.562. For the same compound, the fitness (S. pneumoniae D39V [6]; [11]) was 0.504, the fitness (S. pneumoniae D39V [6]; first compound 1 µg/mL, partner 2 µg/mL) was 0.663 and the fitness (S. pneumoniae D39V [6]; first compound 2 µg/mL, partner 0.15 µg/mL, one replicate) was 0.646. For the same compound, the fitness (S. pneumoniae D39V [6]; first compound 2 µg/mL, partner 0.3 µg/mL, one replicate) was 0.628, the fitness (S. pneumoniae D39V [6]; [12]) was 0.316 and the fitness (S. pneumoniae D39V [6]; [13]) was 0.0366. For the same compound, the fitness (S. pneumoniae D39V [6]; first compound 4 µg/mL, partner 0.15 µg/mL, one replicate) was 0.0743, the fitness (S. pneumoniae D39V [6]; first compound 4 µg/mL, partner 0.3 µg/mL, one replicate) was 0.0023 and the fitness (S. pneumoniae D39V [6]; first compound 4 µg/mL, partner 0.5 µg/mL, one replicate) was 0.338. For the same compound, the fitness (S. pneumoniae D39V [6]; first compound 4 µg/mL, partner 1 µg/mL, one replicate) was 0.0659, the fitness (S. pneumoniae D39V [6]; first compound 4 µg/mL, partner 2 µg/mL) was 0.0521 and the fitness (B. subtilis 168 [1]; first compound 0.125 µg/mL, partner 0.0625 µg/mL) was 0.966. The fitness (B. subtilis 168 [1]; first compound 0.125 µg/mL, partner 0.125 µg/mL) was 0.944, the fitness (B. subtilis 168 [1]; first compound 0.125 µg/mL, partner 0.25 µg/mL) was 0.983 and the fitness (B. subtilis 168 [1]; [14]) was 0.944. It also gave a fitness (B. subtilis 168 [1]; [15]) of 0.926, a fitness (B. subtilis 168 [1]; [16]) of 0.911 and a fitness (B. subtilis 168 [1]; [17]) of 0.955. The fitness (B. subtilis 168 [1]; [18]) was 0.99, the fitness (B. subtilis 168 [1]; [19]) was 0.989 and the fitness (S. aureus Newman [2]; [14]) was ≥ 1. The fitness (S. aureus Newman [2]; [15]) was ≥ 1, the fitness (S. aureus Newman [2]; [16]) was ≥ 1 and the fitness (S. aureus Newman [2]; [17]) was 0.994. The fitness (S. aureus Newman [2]; [18]) was ≥ 1, the fitness (S. aureus Newman [2]; [19]) was ≥ 1 and the fitness (S. aureus Newman [2]; [7]) was 0.847. For the same compound, the fitness (S. aureus Newman [2]; [8]) was ≥ 1, the fitness (S. aureus Newman [2]; [9]) was 0.936 and the fitness (S. aureus Newman [2]; first compound 1 µg/mL, partner 0.0625 µg/mL) was ≥ 1. The fitness (S. aureus Newman [2]; first compound 1 µg/mL, partner 0.125 µg/mL) was ≥ 1, the fitness (S. aureus Newman [2]; first compound 1 µg/mL, partner 0.25 µg/mL) was ≥ 1 and the fitness (S. aureus Newman [2]; [10]) was 0.951. The fitness (S. aureus Newman [2]; [11]) was ≥ 1, the fitness (S. aureus Newman [2]; first compound 1 µg/mL, partner 2 µg/mL, one replicate) was 0.923 and the fitness (S. aureus Newman [2]; [12]) was 0.986. The fitness (S. aureus Newman [2]; [13]) was ≥ 1, the fitness (S. aureus Newman [2]; first compound 2 µg/mL, partner 2 µg/mL, one replicate) was 0.978 and the Bliss interaction score (S. aureus DSM 20231) was 0.0651. For the same compound, the Bliss interaction score (S. pneumoniae D39V [3]) was 0.16, the Bliss interaction score (B. subtilis 168 [4]) was 0.0598 and the Bliss interaction score (S. aureus Newman [5]) was 0.023.
`CC1=C(C(=O)O)N2C(=O)[C@@H](NC(=O)[C@H](N)c3ccccc3)[C@H]2SC1` [Cephalexin] + CCN(CC)CCOC(=O)c1ccc(N)cc1 [Procaine] was tested, and the fitness (S. pneumoniae D39V [6]; first compound 0.125 µg/mL, partner 85.5 µg/mL, one replicate) was ≥ 1, the fitness (S. pneumoniae D39V [6]; first compound 0.125 µg/mL, partner 171 µg/mL, one replicate) was 0.958 and the fitness (S. pneumoniae D39V [6]; first compound 0.125 µg/mL, partner 342 µg/mL, one replicate) was 0.962. The fitness (S. pneumoniae D39V [6]; first compound 0.25 µg/mL, partner 85.5 µg/mL, one replicate) was ≥ 1, the fitness (S. pneumoniae D39V [6]; first compound 0.25 µg/mL, partner 171 µg/mL, one replicate) was 0.982 and the fitness (S. pneumoniae D39V [6]; first compound 0.25 µg/mL, partner 342 µg/mL, one replicate) was 0.997. The fitness (S. pneumoniae D39V [6]; first compound 0.5 µg/mL, partner 85.5 µg/mL, one replicate) was ≥ 1, the fitness (S. pneumoniae D39V [6]; first compound 0.5 µg/mL, partner 171 µg/mL, one replicate) was ≥ 1 and the fitness (S. pneumoniae D39V [6]; first compound 0.5 µg/mL, partner 342 µg/mL, one replicate) was ≥ 1. It also gave a fitness (S. pneumoniae D39V [6]; first compound 1 µg/mL, partner 85.5 µg/mL, one replicate) of 0.253, a fitness (S. pneumoniae D39V [6]; first compound 1 µg/mL, partner 171 µg/mL, one replicate) of 0.422 and a fitness (S. pneumoniae D39V [6]; first compound 1 µg/mL, partner 342 µg/mL, one replicate) of 0.395. For the same compound, the fitness (S. pneumoniae D39V [6]; first compound 2 µg/mL, partner 85.5 µg/mL, one replicate) was 0.0329, the fitness (S. pneumoniae D39V [6]; first compound 2 µg/mL, partner 171 µg/mL, one replicate) was 0.058 and the fitness (S. pneumoniae D39V [6]; first compound 2 µg/mL, partner 342 µg/mL, one replicate) was 0.0539. The fitness (S. pneumoniae D39V [6]; first compound 4 µg/mL, partner 85.5 µg/mL, one replicate) was 0.0487, the fitness (S. pneumoniae D39V [6]; first compound 4 µg/mL, partner 171 µg/mL, one replicate) was 0.0569 and the fitness (S. pneumoniae D39V [6]; first compound 4 µg/mL, partner 342 µg/mL, one replicate) was 0.0475. For the same compound, the fitness (B. subtilis 168 [1]; first compound 0.125 µg/mL, partner 85.5 µg/mL) was 0.925, the fitness (B. subtilis 168 [1]; first compound 0.125 µg/mL, partner 171 µg/mL) was 0.91 and the fitness (B. subtilis 168 [1]; first compound 0.125 µg/mL, partner 342 µg/mL) was 0.879. The fitness (B. subtilis 168 [1]; [20]) was 0.911, the fitness (B. subtilis 168 [1]; first compound 0.25 µg/mL, partner 171 µg/mL) was 0.912 and the fitness (B. subtilis 168 [1]; [21]) was 0.875. It also gave a fitness (B. subtilis 168 [1]; first compound 0.5 µg/mL, partner 85.5 µg/mL) of 0.904, a fitness (B. subtilis 168 [1]; first compound 0.5 µg/mL, partner 171 µg/mL) of 0.864 and a fitness (B. subtilis 168 [1]; [22]) of 0.869. It also gave a fitness (S. aureus Newman [2]; [20]) of 0.952, a fitness (S. aureus Newman [2]; [21]) of 0.966 and a fitness (S. aureus Newman [2]; [22]) of 0.987. For the same compound, the fitness (S. aureus Newman [2]; first compound 1 µg/mL, partner 342 µg/mL) was ≥ 1, the Bliss interaction score (S. aureus DSM 20231) was 0.0552 and the Bliss interaction score (S. pneumoniae D39V [3]) was -0.118. It also gave a Bliss interaction score (B. subtilis 168 [4]) of 0.0569 and a Bliss interaction score (S. aureus Newman [5]) of -0.0605.
